We go through 13 compounds from patent publication US20260022142A1, “MACROCYCLIC IMMUNOMODULATORS” (Bristol-Myers Squibb Company, priority 2022, published 2026).

Bridge positions count the residues as written; N and C are the ends. Square brackets hold non-standard residues; d marks the D form. Peptide text beside a SMILES is read from it. * marks the point of attachment. Phe(4-CH2CH2COOH) = N[C@@H](Cc1ccc(CCC(=O)O)cc1)C(=O)O; Bip = N[C@@H](Cc1ccc(-c2ccccc2)cc1)C(=O)O; Phe(3-Me) = Cc1cccc(C[C@H](N)C(=O)O)c1; Cha = N[C@@H](CC1CCCCC1)C(=O)O; Cit = NC(=O)NCCC[C@H](N)C(=O)O; Carboxymethyl = O=C(O)C*; Orn = NCCC[C@H](N)C(=O)O; dNMeA = CN[C@H](C)C(=O)O; Aun = NCCCCCCCCCCC(=O)O; Dab = NCC[C@H](N)C(=O)O; Dap = NC[C@H](N)C(=O)O

In this experiment the target is T1, PD-1/PD-L1 interaction (PE-labeled human PD-L1-Ig binding to Jurkat cell line over-expressing human PD-1) (Homo sapiens, UniProt Q15116).
T1 construct: expressed in transfected cells; host or cells: Jurkat
T1 sequence (Q15116 25-288): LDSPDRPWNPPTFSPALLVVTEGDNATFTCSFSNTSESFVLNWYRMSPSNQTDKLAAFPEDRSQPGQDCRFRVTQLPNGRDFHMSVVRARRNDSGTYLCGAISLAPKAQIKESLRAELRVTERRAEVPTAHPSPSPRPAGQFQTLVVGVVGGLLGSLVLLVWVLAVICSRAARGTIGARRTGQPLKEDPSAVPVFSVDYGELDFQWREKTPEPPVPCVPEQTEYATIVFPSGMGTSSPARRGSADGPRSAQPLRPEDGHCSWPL
Put plainly: Jurkat-PD-1 Cell Binding High-Content Screening Assay (CBA). The following applies: Jurkat cell line over-expressing human PD-1; PE-labeled PD-L1-Ig 20 nM final; read-out: Jurkat hPD1-PDL1 IC50. The class given is cell-based. Summed up: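 Binding of fluorescent PD-L1-Ig (phycoerythrin on Ig tag, 20 nM final, 1 h) measured by high-content imaging of fixed, Hoechst-counterstained Jurkat-hPD-1 cells. Compound added 2 h at 37° C beforehand, in DMEM with 10% fetal calf serum.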
For `CC(C)C[C@H]1NC(=O)[C@H](CCCN)NC(=O)[C@H](C(C)C)NC(=O)[C@H](Cc2ccc(-c3ccccc3)cc2)NC(=O)[C@H](C(C)C)NC(=O)[C@H](Cc2c[nH]c3ccccc23)NC(=O)[C@H](CC(=O)O)NC(=O)[C@H](Cc2ccc(OCC(=O)O)cc2)NC(=O)[C@H](CN)NC(=O)CSC[C@@H](C(=O)N[C@@H](CCCCN)C(=O)NCCCCCCCCCCC(=O)O)NC(=O)[C@H](CCCN)NC(=O)[C@H](C(C)C)NC(=O)[C@H](CC2CCCCC2)NC(=O)[C@H](Cc2c[nH]cn2)NC1=O` [Compound 2804] ({CH2CO}-[Dap]Y(Carboxymethyl)DWV[Bip]V[Orn][dL]H[Cha]V[Orn]CK[Aun]-OH; thioether N-14), the IC50 is 51 nM. The result for `Cc1cccc(C[C@@H]2NC(=O)[C@H](CC(=O)O)NC(=O)[C@H](Cc3ccc(OCC(=O)O)cc3)NC(=O)[C@H](CCCNC(=N)N)NC(=O)CSC[C@@H](C(=O)N[C@@H](CCCCN)C(=O)NCCCCCCCCCCC(=O)O)NC(=O)[C@H](CCCN)NC(=O)[C@H](C(C)C)NC(=O)[C@H](CC3CCCCC3)NC(=O)[C@H](CCN)NC(=O)[C@@H](CC(C)C)NC(=O)[C@H](CCN)NC(=O)[C@H](CCCNC(N)=O)NC(=O)[C@H](Cc3ccc(-c4ccccc4)cc3)NC(=O)[C@H](C(C)C)NC2=O)c1` [Compound 2805] ({CH2CO}-RY(Carboxymethyl)D[Phe(3-Me)]V[Bip][Cit][Dab][dL][Dab][Cha]V[Orn]CK[Aun]-OH; thioether N-14) reads 9.9 nM; that for `Cc1cccc(C[C@@H]2NC(=O)[C@H](CC(=O)O)NC(=O)[C@H](Cc3ccc(OCC(=O)O)cc3)NC(=O)[C@H](CN)NC(=O)CSC[C@@H](C(=O)N[C@H](CO)C(=O)N[C@@H](CCC(=O)O)C(=O)NCCCCCCCCCCC(=O)O)NC(=O)[C@H]([C@@H](C)O)NC(=O)[C@H](C(C)C)NC(=O)[C@H](CC3CCCCC3)NC(=O)[C@H](CCN)NC(=O)[C@@H](CC(C)C)NC(=O)[C@H](CCCN)NC(=O)[C@H](CCCNC(N)=O)NC(=O)[C@H](Cc3ccc(-c4ccccc4)cc3)NC(=O)[C@H](C(C)C)NC2=O)c1` [Compound 2807] ({CH2CO}-[Dap]Y(Carboxymethyl)D[Phe(3-Me)]V[Bip][Cit][Orn][dL][Dab][Cha]VTC[dS]E[Aun]-OH; thioether N-14), 16.5 nM; that for `Cc1cccc(C[C@@H]2NC(=O)[C@H](CC(=O)O)NC(=O)[C@H](Cc3ccc(OCC(=O)O)cc3)NC(=O)[C@H](CN)NC(=O)CSC[C@@H](C(=O)N(C)[C@H](C)C(=O)N[C@@H](CCC(=O)O)C(=O)NCCCCCCCCCCC(=O)O)NC(=O)[C@H]([C@@H](C)O)NC(=O)[C@H](C(C)C)NC(=O)[C@H](CC3CCCCC3)NC(=O)[C@H](CCN)NC(=O)[C@@H](CC(C)C)NC(=O)[C@H](CCCN)NC(=O)[C@H](CCCNC(N)=O)NC(=O)[C@H](Cc3ccc(-c4ccccc4)cc3)NC(=O)[C@H](C(C)C)NC2=O)c1` [Compound 2809] ({CH2CO}-[Dap]Y(Carboxymethyl)D[Phe(3-Me)]V[Bip][Cit][Orn][dL][Dab][Cha]VTC[dNMeA]E[Aun]-OH; thioether N-14), 180 nM. For `Cc1cccc(C[C@@H]2NC(=O)[C@H](CC(=O)O)NC(=O)[C@H](Cc3ccc(CCC(=O)O)cc3)NC(=O)[C@H](CN)NC(=O)CSC[C@@H](C(=O)N[C@@H](CCN)C(=O)N[C@@H](CO)C(=O)NCCCCCCCCCCC(=O)O)NC(=O)[C@H]([C@@H](C)O)NC(=O)[C@H](C(C)C)NC(=O)[C@H](CC3CCCCC3)NC(=O)[C@H](CCN)NC(=O)[C@@H](CC(C)C)NC(=O)[C@H](CCCN)NC(=O)[C@H](CCCNC(N)=O)NC(=O)[C@H](Cc3ccc(-c4ccccc4)cc3)NC(=O)[C@H](C(C)C)NC2=O)c1` [Compound 2811] ({CH2CO}-[Dap][Phe(4-CH2CH2COOH)]D[Phe(3-Me)]V[Bip][Cit][Orn][dL][Dab][Cha]VTC[Dab]S[Aun]-OH; thioether N-14) the value was 34.1 nM. As for `Cc1cccc(C[C@@H]2NC(=O)[C@H](CC(=O)O)NC(=O)[C@H](Cc3ccc(CCC(=O)O)cc3)NC(=O)[C@H](CN)NC(=O)CSC[C@@H](C(=O)N[C@@H](CCCN)C(=O)N[C@@H](CO)C(=O)NCCCCCCCCCCC(=O)O)NC(=O)[C@H]([C@@H](C)O)NC(=O)[C@H](C(C)C)NC(=O)[C@H](CC3CCCCC3)NC(=O)[C@H](CCN)NC(=O)[C@@H](CC(C)C)NC(=O)[C@H](CCCN)NC(=O)[C@H](CCCNC(N)=O)NC(=O)[C@H](Cc3ccc(-c4ccccc4)cc3)NC(=O)[C@H](C(C)C)NC2=O)c1` [Compound 2812] ({CH2CO}-[Dap][Phe(4-CH2CH2COOH)]D[Phe(3-Me)]V[Bip][Cit][Orn][dL][Dab][Cha]VTC[Orn]S[Aun]-OH; thioether N-14), the IC50 was found to be 24 nM. The result for `Cc1cccc(C[C@@H]2NC(=O)[C@H](CC(=O)O)NC(=O)[C@H](Cc3ccc(CCC(=O)O)cc3)NC(=O)[C@H](CCCNC(=N)N)NC(=O)CSC[C@@H](C(=O)N[C@@H](CCN)C(=O)N[C@@H](CO)C(=O)NCCCCCCCCCCC(=O)O)NC(=O)[C@H](CCC(=O)O)NC(=O)[C@H](C(C)C)NC(=O)[C@H](CC3CCCCC3)NC(=O)[C@H](CCN)NC(=O)[C@@H](CC(C)C)NC(=O)[C@H](CCN)NC(=O)[C@H](CCCNC(N)=O)NC(=O)[C@H](Cc3ccc(-c4ccccc4)cc3)NC(=O)[C@H](C(C)C)NC2=O)c1` [Compound 2813] ({CH2CO}-R[Phe(4-CH2CH2COOH)]D[Phe(3-Me)]V[Bip][Cit][Dab][dL][Dab][Cha]VEC[Dab]S[Aun]-OH; thioether N-14) reads 181 nM; that for `Cc1cccc(C[C@@H]2NC(=O)[C@H](CC(=O)O)NC(=O)[C@H](Cc3ccc(CCC(=O)O)cc3)NC(=O)[C@H](CCCNC(=N)N)NC(=O)CSC[C@@H](C(=O)N[C@@H](CCCN)C(=O)N[C@@H](CO)C(=O)NCCCCCCCCCCC(=O)O)NC(=O)[C@H](CCC(=O)O)NC(=O)[C@H](C(C)C)NC(=O)[C@H](CC3CCCCC3)NC(=O)[C@H](CCN)NC(=O)[C@@H](CC(C)C)NC(=O)[C@H](CCN)NC(=O)[C@H](CCCNC(N)=O)NC(=O)[C@H](Cc3ccc(-c4ccccc4)cc3)NC(=O)[C@H](C(C)C)NC2=O)c1` [Compound 2814] ({CH2CO}-R[Phe(4-CH2CH2COOH)]D[Phe(3-Me)]V[Bip][Cit][Dab][dL][Dab][Cha]VEC[Orn]S[Aun]-OH; thioether N-14), 23.6 nM; that for `CC(C)C[C@H]1NC(=O)[C@H](CCN)NC(=O)[C@H](CCCNC(N)=O)NC(=O)[C@H](Cc2ccc(-c3ccccc3)cc2)NC(=O)[C@H](C(C)C)NC(=O)[C@H](Cc2c[nH]c3ccccc23)NC(=O)[C@H](CC(=O)O)NC(=O)[C@H](Cc2ccc(OCC(=O)O)cc2)NC(=O)[C@H](CCCNC(=N)N)NC(=O)CSC[C@@H](C(=O)N[C@@H](CCCN)C(=O)NCCCCCCCCCCC(=O)O)NC(=O)[C@@H](CCC(N)=O)NC(=O)[C@H](C(C)C)NC(=O)[C@H](CC2CCCCC2)NC(=O)[C@H](CCN)NC1=O` [Compound 2816] ({CH2CO}-RY(Carboxymethyl)DWV[Bip][Cit][Dab][dL][Dab][Cha]V[dQ]C[Orn][Aun]-OH; thioether N-14), 74.9 nM. As for `CC(C)C[C@H]1NC(=O)[C@H](CCN)NC(=O)[C@H](Cc2ccc(O)cc2)NC(=O)[C@H](Cc2ccc(-c3ccccc3)cc2)NC(=O)[C@H](C(C)C)NC(=O)[C@H](Cc2c[nH]c3ccccc23)NC(=O)[C@H](CC(=O)O)NC(=O)[C@H](Cc2ccc(OCC(=O)O)cc2)NC(=O)[C@H](CCCNC(=N)N)NC(=O)CSC[C@@H](C(=O)N[C@@H](CCCN)C(=O)NCCCCCCCCCCC(=O)O)NC(=O)[C@@H](CCC(N)=O)NC(=O)[C@H](C(C)C)NC(=O)[C@H](CC2CCCCC2)NC(=O)[C@H](CCN)NC1=O` [Compound 2817] ({CH2CO}-RY(Carboxymethyl)DWV[Bip]Y[Dab][dL][Dab][Cha]V[dQ]C[Orn][Aun]-OH; thioether N-14), the half-maximal inhibitory concentration (IC50) stood at 47.1 nM. `Cc1cccc(C[C@@H]2NC(=O)[C@H](CC(=O)O)NC(=O)[C@H](Cc3ccc(OCC(=O)O)cc3)NC(=O)[C@H](CCCNC(=N)N)NC(=O)CSC[C@@H](C(=O)N[C@@H](CCN)C(=O)NCCCCCCCCCCC(=O)O)NC(=O)[C@H](CCC(=O)O)NC(=O)[C@H](C(C)C)NC(=O)[C@H](CC3CCCCC3)NC(=O)[C@H](CCN)NC(=O)[C@@H](CC(C)C)NC(=O)[C@H](CCN)NC(=O)[C@H](Cc3ccc(O)cc3)NC(=O)[C@H](Cc3ccc(-c4ccccc4)cc3)NC(=O)[C@H](C(C)C)NC2=O)c1` [Compound 2818] ({CH2CO}-RY(Carboxymethyl)D[Phe(3-Me)]V[Bip]Y[Dab][dL][Dab][Cha]VEC[Dab][Aun]-OH; thioether N-14): the IC50 was 23.3 nM.

Consider `Cc1cccc(C[C@@H]2NC(=O)[C@H](CC(=O)O)NC(=O)[C@H](Cc3ccc(OCC(=O)O)cc3)NC(=O)[C@H](CCCNC(=N)N)NC(=O)CSC[C@@H](C(=O)N[C@@H](CCCN)C(=O)NCCCCCCCCCCC(=O)O)NC(=O)[C@H](CCC(=O)O)NC(=O)[C@H](C(C)C)NC(=O)[C@H](CC3CCCCC3)NC(=O)[C@H](CCN)NC(=O)[C@@H](CC(C)C)NC(=O)[C@H](CCN)NC(=O)[C@H](Cc3ccc(O)cc3)NC(=O)[C@H](Cc3ccc(-c4ccccc4)cc3)NC(=O)[C@H](C(C)C)NC2=O)c1` [Compound 2819] ({CH2CO}-RY(Carboxymethyl)D[Phe(3-Me)]V[Bip]Y[Dab][dL][Dab][Cha]VEC[Orn][Aun]-OH; thioether N-14), for which the IC50 amounted to 21 nM.

On to `Cc1cccc(C[C@@H]2NC(=O)[C@H](CC(=O)O)NC(=O)[C@H](Cc3ccc(OCC(=O)O)cc3)NC(=O)[C@H](CCCNC(=N)N)NC(=O)CSC[C@@H](C(=O)N[C@@H](CCN)C(=O)NCCCCCCCCCCC(=O)O)NC(=O)[C@@H](CCC(N)=O)NC(=O)[C@H](C(C)C)NC(=O)[C@H](CC3CCCCC3)NC(=O)[C@H](CCN)NC(=O)[C@@H](CC(C)C)NC(=O)[C@H](CCN)NC(=O)[C@H](CCCNC(N)=O)NC(=O)[C@H](Cc3ccc(-c4ccccc4)cc3)NC(=O)[C@H](C(C)C)NC2=O)c1` [Compound 2820] ({CH2CO}-RY(Carboxymethyl)D[Phe(3-Me)]V[Bip][Cit][Dab][dL][Dab][Cha]V[dQ]C[Dab][Aun]-OH; thioether N-14), for which the IC50 was 23.9 nM.

One may read the IC50 as the concentration that inhibits the measured activity by half.
